From US10150737B2, “Compounds for controlling arthropods” (priority 2013, dated 2018)

Key:
Boophilus microplus = Boophilus microplus - injection test; type: in vivo; conditions: Rhipicephalus microplus, 168 h; application rate 20 μg/animal; injection into engorged adult female ticks; after 7 days; read-out: efficacy (laying of fertile eggs)
Procedure, shortened: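 Five engorged adult female cattle ticks each received a 1 μl abdominal injection of compound solution in dimethyl sulphoxide. Fertile egg laying was assessed at 7 days, with doubtful eggs incubated about 42 days until hatch. 0% efficacy means all eggs fertile.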

[1] = tested on: Anopheles funestus strain FUMOZ-R; assay: Anopheles test (ANPHFU surface treatment); type: in vivo; conditions: read-out: efficacy (mortality)
Experimental: (§1) Solvent: acetone+2000 ppm rapeseed oil methyl ester (RME)
(§2) To produce an appropriate active ingredient formulation, the active ingredient is dissolved in the solvent (2 mg/ml). The active ingredient formulation is pipetted onto a glazed tile and, after it has dried off, adult mosquitoes of the species Anopheles funestus strain FUMOZ-R (Hunt et al., Med Vet Entomol. 2005 September; 19 (3):271-5) are placed onto the treated tile. The exposure time is 30 minutes.
(§3) 24 hours after contact with the treated surface, mortality in % is determined. 100% means that all mosquitoes have been killed; 0% means that none of the mosquitoes have been killed.

[2] = tested on: Aedes aegypti strain MONHEIM; assay: Aedes test (AEDSAE surface treatment); type: in vivo; conditions: read-out: efficacy (mortality)
Experimental: as §1
as §2, with “Aedes aegypti” for “Anopheles funestus”, “MONHEIM” for “FUMOZ-R (Hunt et al., Med Vet Entomol. 2005 September; 19 (3):271-5)”
as §3

Ctenocephalides felis = Ctenocephalides felis - in vitro contact tests with adult cat fleas; type: in vivo; conditions: application rate 5 μg/cm2 (=500 g/ha); after 48 h; fleas dead or moribund
Procedure, shortened: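 Efficacy, as percentage of fleas dead or moribund, was scored at 48 h by knocking fleas to the tube base. Exposure was by contact with a dried acetone film of compound at 5 μg/cm^2 area dose; 5–10 adults per tube, room temperature, ambient humidity.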

Rhipicephalus sanguineus = Rhipicephalus sanguineus - in vitro contact tests with adult brown dog ticks; type: in vivo; conditions: application rate 5 μg/cm2; after 48 h; ticks dead or moribund
Procedure, shortened: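 Efficacy, scored after 48 h, is the % of adult ticks dead or moribund, i.e. unable to climb away on a 45-50° C hotplate within 5 min. Tubes held 5-10 ticks in the dark at room temperature, on an acetone-applied coating of 5 μg/cm^2 (900 ppm solution).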

Musca domestica = Musca domestica test; type: in vivo; conditions: application rate 100 ppm; adult houseflies; after 2 days
Procedure, shortened: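 First, 10 mg compound was taken up in 0.5 ml DMSO and then brought with water to the required concentration. This was applied with sugar solution to a sponge in vessels holding 10 adult flies; kill was assessed after 2 days.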

Myzus persicae = Myzus persicae - spray test; type: in vivo; conditions: application rate 100 g/ha; Chinese cabbage leaf discs; after 6 days
Procedure, shortened: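 Mortality of the green peach aphid, as % killed, was read 6 days after spraying infested Brassica pekinensis leaf discs. Compound formulated in acetone/dimethylformamide and made up with emulsifier-containing (1000 ppm) water.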

[3] = tested on: Boophilus microplus Parkhurst strain, SP-resistant; assay: Boophilus microplus - dip test; type: in vivo; conditions: application rate 100 ppm; dip of engorged adult female ticks; after 7 days
Procedure, shortened: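 Compound dissolved in DMSO, diluted with water, and used to fully wet groups of 8-10 engorged female cattle ticks (SP-resistant Parkhurst strain). Fertile egg laying assessed at 7 days, doubtful eggs held ~42 days until hatch; 0% means all eggs fertile.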

[4] = logP determination by HPLC on a reversed-phase column (C18); type: physicochemical; conditions: HPLC, C18 reversed phase, acetonitrile/water with formic acid, EEC Directive 79/831 Annex V.A8
Amblyomma hebraeum = assay: Amblyomma hebaraeum test (tick nymphs, immersion); type: in vivo; conditions: application rate 100 ppm; tick nymphs immersed one minute; after 42 days
Procedure, shortened: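 Mortality (%) is read 42 days post-treatment, where 0% means no ticks and 100% all ticks killed. Nymphs were dipped for 1 min into the test dilution (DMSO stock diluted with water) and afterwards stored on filter paper under controlled climate.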

[5] = tested on: Anopheles gamhiae strain RSPH (homozygot kdr); assay: Anopheles test (ANPHGB surface treatment); type: in vivo; conditions: read-out: efficacy (mortality)
Experimental: as §1
as §2, with “gamhiae” for “funestus”, “RSPH (homozygot kdr)” for “FUMOZ-R (Hunt et al., Med Vet Entomol. 2005 September; 19 (3):271-5)”
as §3

In the case of Cc1cc(C(F)(C(F)(F)F)C(F)(F)F)cc(C)c1-c1cc(-c2ccc(Cl)c(C(=O)NC3CC3)c2)on1 [I-T22-1, 2-chloro-N-cyclopropyl-5-[3-[2,6-dimethyl-4-[1,2,2,2-tetrafluoro-1-(trifluoromethyl)ethyl]phenyl]isoxazol-5-yl]benzamide], the pest or weed control at 0.02 mg (Boophilus microplus) is reported as 100%, the mortality at 20 mg/m2 [1] is reported as 90 to 100% and the mortality at 100 mg/m2 [1] is reported as 90 to 100%. For the same compound, the mortality at 20 mg/m2 [2] was 90 to 100%, the mortality at 100 mg/m2 [2] was 90 to 100% and the efficacy (Ctenocephalides felis) was 100%. The efficacy (Rhipicephalus sanguineus) was 100%, the “efficacy (kill)” value (Musca domestica) was 100% and the efficacy (Myzus persicae) was 100%. The “efficacy (laying of fertile eggs)” value [3] was 100%, the logP [4] was 4.8 and the “efficacy (kill)” value (Amblyomma hebraeum) was 100%. It also gave a mortality at 100 mg/m2 [5] of 90 to 100%.
